From patent US4210648A, “II-Aminoacyl-5,11-dihydro-6H-pyrido(2,3-B) (1,4)benzodiazepin-6-ones and salts thereof” (Boehringer Ingelheim GmbH, priority 1977, dated 1980)

Columns and labels:
[1] = system: guinea pig colon; assay: spasmolytic effect in vitro on the guinea pig colon (acetylcholine-induced spasms; comparison atropinesulfate); conditions: relative to atropine = 1
Protocol: (§1) The compounds were examined with regard to their inhibiting effect on the formation of stress ulcers in rats and their spasmolytic effect, related to atropine, with consideration of their acute toxicity.
(§2) The spasmolytic effect was determined in vitro on the guinea pig colon, using the experimental arrangement according to R. Magnus, Pflugers Archiv, 102, pp. 123 (1904). Acetylcholine was taken to induce spasms, the substance for comparison was atropinesulfate. The spasticum was administered one minute before the administration of the spasmolytic substance, and the spasmolytic was allowed to take effect for 1 minute. […] The acute toxicity was determined after peroral administration of the test substance to fasted white mice with a body weight of 18 to 20 gm. The observation period was 14 days. For each dosage a group of six mice was used.

[2] = system: mouse; assay: acute toxicity after peroral administration to mice; assay type: in vivo
Protocol: as §2

[3] = as above; assay type: in vivo; conditions: in vivo, po, mouse, observation 14 days
Protocol: as §2

[4] = system: stress ulcers; assay: inhibiting effect on the formation of stress ulcers in rats; assay type: in vivo
Protocol: as §1
The inhibiting effect on the formation of stress ulcers in rats was determined according to the method of K. Takagi and S. Okabe, Jap.Journ.Pharmac. 18, pp. 9 to 18 (1968). Fed female rats with a body weight between 220 and 260 gm were individually put into small wire cages and were subsequently kept vertically submerged in a water bath which was kept constant at a temperature of 23° C. for 16 hours, so that only the heads and the breastbones of the animals were above the water surface. The test compounds were administered perorally 5 to 10 minutes before. With each substance five animals were treated. 1 ml of a 0.9% physiological sodium chloride solution or 1 ml of a 1% tylose solution was administered to the control animals in the same way. After 18 hours the animals were killed by an overdose of ethyl chloride, the stomachs were excised, cut along the big curvature and spread on a cork plate. The evaluation was carried out according to the methods of Marazzi-Uberti and Turba, Med. Exp. 4, pp. 284 to 292 (1961), and Takagi and Okabe (supra).

For `CCN1CCCC1CNCC(=O)N1c2ccccc2C(=O)N(C)c2cccnc21` (stereo not drawn) [A, 11-{[(1-Ethyl-2-pyrrolidinyl)methylamino]acetyl}-5,11-dihydro-5-methyl-6H-pyrido[2,3-b][1,4]benzodiazepin-6-one], the “Spasmolysis (acetylcholine) with regard to Atropin = 1” value (“Spasmolysis (acetylcholine)” below) [1] was 1/250, the “animals died at 1500 mg/kg” value [2] was 2 out of 4 and the LD50 at 336 h [3] was ~1500 mg/kg. For the same compound, the “Ulcer-inhibition in % (rat) after peroral administr. of 12.5 mg/kg” value (“Ulcer-inhibition in % (rat) … of 12.5 mg/kg” for short) [4] was 90%, the “Ulcer-inhibition in % (rat) after peroral administr. of 25 mg/kg” value (from here on “Ulcer-inhibition in % (rat) … of 25 mg/kg”) [4] was 90% and the “Ulcer-inhibition in % (rat) after peroral administr. of 50 mg/kg” value (“Ulcer-inhibition in % (rat) … of 50 mg/kg” below) [4] was 95%.

For `COC1CCN(CC(=O)N2c3ccccc3C(=O)Nc3cccnc32)CC1` [B, 5,11-Dihydro-11-[(4-methoxypiperidino)acetyl]-6H-pyrido [2,3-b]-[1,4]benzodiazepin-6-one], the “Spasmolysis (acetylcholine)” value [1] was 1/125, the “animals died at 1000 mg/kg” value [2] was 2 out of 5 and the LD50 at 336 h [3] was > 1000 mg/kg. For the same compound, the “Ulcer-inhibition in % (rat) … of 12.5 mg/kg” value [4] was 53%, the “Ulcer-inhibition in % (rat) … of 25 mg/kg” value [4] was 79% and the “Ulcer-inhibition in % (rat) … of 50 mg/kg” value [4] was 89%.

For `CC1CCCCN1CCC(=O)N1c2ccccc2C(=O)Nc2cccnc21` (stereo not drawn) [C, 5,11-Dihydro-11-[3-(2-methylpiperidino)propionyl]-6H-pyrido-[2,3-b][1,4]benzodiazepin-6-one], the “Spasmolysis (acetylcholine)” value [1] was 1/50, the “animals died at 1000 mg/kg” value [2] was 1 out of 5 and the LD50 at 336 h [3] was > 1000 mg/kg. The “Ulcer-inhibition in % (rat) … of 12.5 mg/kg” value [4] was 79%, the “Ulcer-inhibition in % (rat) … of 25 mg/kg” value [4] was 84% and the “Ulcer-inhibition in % (rat) … of 50 mg/kg” value [4] was 95%.

For `O=C1Nc2cccnc2N(C(=O)CCN2CCCCC2)c2ccccc21` [D, 5,11-Dihydro-11-(3-piperidinopropionyl)-6H-pyrido [2,3-b][1,4]-benzodiazepin-6-one], the “Spasmolysis (acetylcholine)” value [1] was 1/125, the “animals died at 2000 mg/kg” value ([2]; 2000 mg/kg) was 3 out of 5 and the LD50 at 336 h [3] was ~2000 mg/kg. For the same compound, the “Ulcer-inhibition in % (rat) … of 12.5 mg/kg” value [4] was 58%, the “Ulcer-inhibition in % (rat) … of 25 mg/kg” value [4] was 69% and the “Ulcer-inhibition in % (rat) … of 50 mg/kg” value [4] was 84%.

For `O=C1Nc2cccnc2N(C(=O)CCCN2CCCC2)c2ccccc21` [E, 5,11-Dihydro-11-(4-pyrrolidino-butyryl)-6H-pyrido[2,3-b][1,4]-benzodiazepin-6-one], the “Spasmolysis (acetylcholine)” value [1] was 1/190, the “animals died at 1500 mg/kg” value [2] was 1 out of 6 and the LD50 at 336 h [3] was > 1500 mg/kg. The “Ulcer-inhibition in % (rat) … of 12.5 mg/kg” value [4] was 18%, the “Ulcer-inhibition in % (rat) … of 25 mg/kg” value [4] was 58% and the “Ulcer-inhibition in % (rat) … of 50 mg/kg” value [4] was 79%.
